Data: US20200030355A1, “COMBINATION THERAPY FOR TREATING CANCER” (Epizyme, Inc., priority 2014, published 2020)
Structures can show the parent of a compound that is named as a salt.

The molecules below were run on MV4-11 (MLL-AF4) (assay: Combination proliferation study with Compound A2 (ATP/CellTiter-Glo, Chou-Talalay combination index)). Conditions: 7 Day Cotreatment Model, Table 4.
Format: cell-based, human
Procedure: (§1) The acute myelogenous leukemia cell lines MV4-11 (MLL-AF4) and MOLM-13 (MLL-AF9) were obtained from American Type Culture Collection (ATCC; Rockville, Md.) and Deutsche Sammlung von Mikroorganismen and Zellkulturen (DSMZ; Braunschweig, Germany) respectively.
(§2) Studies were performed using MLL-rearranged cell lines in vitro to evaluate the anti-proliferative effect of a combination of two agents together on cell growth. Initial proliferation studies were performed to determine the IC50 of a given compound in each cell line. The cell counts were measured by ATP quantitation using the Promega Cell Titer Glo kit and luminescence values corresponded to the amount of ATP in a given well.
(§3) Compounds were evaluated for synergy in the co-treatment phase by testing the compounds in a concentration range which was bracketed around their IC50 values. The compounds were plated to a 96 well plate in a matrix format (FIG. 3) which includes increasing concentrations of each drug in the combination in a constant ratio, in addition to the effect of each compound alone in the study. Cells were seeded and grown in the log-linear phase for 3 or 7 days in the co-treatment phase. Minimum inhibition (DMSO alone) controls were used in each plate to calculate fraction affected (Fa) of a test well. DMSO concentration was kept at 0.1% v/v.
(§4) The drug combination analysis was performed utilizing the Chou-Talalay method Synergy was determined using the software package Calcusyn by Biosoft. The combination index (CI) is a quantitative term used to describe the level of synergy or antagonism in a given test system. A combination index less than one indicates synergy, and a CI greater than one indicates antagonism. Further, strong synergism is achieved when the CI value falls below 0.3.
(§5) Graphs representing values of combination index (CI) versus Fractional effect (Fa) known as Fa-CI plots were generated and synergy was evaluated. Drug synergy was statistically defined by CI values less than 1, antagonism by CI>1 and additive effect by CI equal to 1.
as §5
The HP-D300 digital dispenser (Tecan) was used to dispense compounds in a combinatorial matrix. […] Cell viability was measured via ATP content using CellTiter-Glo® (Promega).
Viability was determined using CellTiter-Glo® (Promega).
Proliferation studies were performed using MOLM-13, MV4-11 and SKM-1 cell lines in vitro to evaluate the cancer cell killing effect of a combination of two agents together on cell growth. Initial proliferation studies were performed to determine the IC50 values of a given compound in each cell line. The cell counts were measured by ATP quantitation using the Promega Cell Titer Glo kit and luminescence values correspond to the amount of ATP in a given well.
These studies were performed to evaluate both the combinatorial effect of compounds on cell killing and the durability of the effect by washing out one of the agents.
Compounds evaluated for synergy in the co-treatment phase were tested in a range which was bracketed around the IC50's. The compounds were plated to a 96 well plate in a matrix format which includes increasing concentrations of each drug in the combination in a constant ratio, in addition to the effect of each compound alone in the study.

Compound	Combination with Compound A2, MV4-11 (MLL-AF4)
C=CC(=O)N1CCC[C@@H](n2nc(-c3ccc(Oc4ccccc4)cc3)c3c(N)ncnc32)C1 [Ibrutinib]	Synergy (Drug synergy was statistically defined by CI values less than 1)
CO[C@@H]1[C@H](N(C)C(=O)c2ccccc2)C[C@H]2O[C@]1(C)n1c3ccccc3c3c4c(c5c6ccccc6n2c5c31)C(=O)NC4 [Midostaurin]	Synergy (Drug synergy was statistically defined by CI values less than 1)
O=C(Nc1ccccc1-c1cn2c(CN3CCNCC3)csc2n1)c1cnc2ccccc2n1 [SRT-1720]	Synergy (Drug synergy was statistically defined by CI values less than 1)

Same assay, conditions: 7 Day Cotreatment Model, Table 5

Compound	Combination with Compound A2, MV4-11
Cn1cncc1[C@@](N)(c1ccc(Cl)cc1)c1ccc2c(c1)c(-c1cccc(Cl)c1)cc(=O)n2C [Tipifarnib]	Synergy (Drug synergy was statistically defined by CI values less than 1)
CC[C@@H]1C(=O)N(C)c2cnc(Nc3ccc(C(=O)N[C@H]4CC[C@H](N5CCN(CC6CC6)CC5)CC4)cc3OC)nc2N1C(C)C [Volasertib]	Antagonstic

Each molecule was assayed on MOLM-13 (MLL-AF9) in the same assay as above. Conditions: 7 Day Cotreatment Model, Table 4.
Format: cell-based, human
Procedure: as §1, §2, §3, §4, §5
Graphs representing values of combination index (CI) versus Fractional effect (Fa) known as Fa-CI plots were generated and synergy was evaluated. Drug synergy was statistically defined by CI values less than 1, antagonism by CI>1 and additive effect by CI equal to 1. […]
Cell viability was measured via ATP content using CellTiter-Glo® (Promega).
Proliferation studies were performed using MOLM-13, MV4-11 and SKM-1 cell lines in vitro to evaluate the cancer cell killing effect of a combination of two agents together on cell growth. Initial proliferation studies were performed to determine the IC50 values of a given compound in each cell line. The cell counts were measured by ATP quantitation using the Promega Cell Titer Glo kit and luminescence values correspond to the amount of ATP in a given well. […]
Compounds evaluated for synergy in the co-treatment phase were tested in a range which was bracketed around the IC50's.

Compound	Combination with Compound A2, MOLM-13 (MLL-AF9)
Nc1nc(F)nc2c1ncn2[C@@H]1O[C@H](CO)[C@@H](O)[C@@H]1O [Fludarabine]	Synergy (Drug synergy was statistically defined by CI values less than 1)
Nc1cccc2c1CN(C1CCC(=O)NC1=O)C2=O (stereo not shown) [Lenalidomide]	Combination Benefit
COC1=CC(c2cc3ccccc3[nH]2)=N/C1=C\c1[nH]c(C)cc1C [Obatoclax]	Additive (additive effect by CI equal to 1)
CC(C)C[C@H](NC(=O)[C@H](Cc1ccccc1)NC(=O)c1cnccn1)B(O)O [Velcade, bortezomib]	Combination Benefit

Same assay, conditions: 7 Day Cotreatment Model, Table 5

Compound	Combination with Compound A2, MOLM13
C[C@@H]1COCCN1c1cc(C2(S(C)(=O)=O)CC2)nc(-c2cccc3[nH]ccc23)n1 [AZ20]	Synergy (Drug synergy was statistically defined by CI values less than 1)
Cn1c(=O)n(-c2ccc(C(C)(C)C#N)cc2)c2c3cc(-c4cnc5ccccc5c4)ccc3ncc21 [BEZ235]	Additive (additive effect by CI equal to 1)
O=C(Nc1ccncc1)c1cc([N+](=O)[O-])ccc1Cl [Compound T0070907]	Additive (additive effect by CI equal to 1)

Same assay, conditions: MOLM-13 cells; co-treatment model of Example 3

Compound	Combination with EPZ-5676
O=C(Nc1ccncc1)c1cc([N+](=O)[O-])ccc1Cl [Compound T0070907]	Synergy (Drug synergy was statistically defined by CI values less than 1)

These molecules were tested on MOLM-13 cells (assay: EPZ-5676 300 nM 7-day pre-treatment, then second compound 72 hours, ATPLite, IC50 shift (Example 6)). Conditions: 300 nM EPZ-5676 or DMSO 7-day pre-treatment, then 2nd compound 72 hours, Synergy = IC50 of 2nd compound decreased by 2-fold or more vs DMSO control.
Format: cell-based, human
Procedure: Cells were then equilibrated in incubators for 24 hours before treatment with a second compound. Treated assay plates were incubated with a second compound for 72 hours. After this time, plates were developed for endpoint analysis using ATPLite to measure ATP content, which is used as an indicator of cell viability.
“N/D” means that IC50 of the second compound could not be determined for both conditions.

Compound	MOLM-13 (summary of combination study: EPZ-5676 + 2nd compound)
Nc1ccccc1NC(=O)c1ccc(CNC(=O)OCc2cccnc2)cc1 [MS-275]	Synergy (considered synergistic if the IC50 value of the second compound decreased by 2-fold or more when EPZ-5676 was added as compared to the DMSO control)
CC1=CC(=O)c2ccccc2C1=O [Menadione]	Synergy (considered synergistic if the IC50 value of the second compound decreased by 2-fold or more when EPZ-5676 was added as compared to the DMSO control)
O=c1cc(N2CCOCC2)oc2c(-c3cccc4c3sc3ccccc34)cccc12 [NU 7441]	Synergy (considered synergistic if the IC50 value of the second compound decreased by 2-fold or more when EPZ-5676 was added as compared to the DMSO control)
COc1ccc(C2=N[C@@H](c3ccc(Cl)cc3)[C@@H](c3ccc(Cl)cc3)N2C(=O)N2CCNC(=O)C2)c(OC(C)C)c1 [Nutlin-3]	Synergy (considered synergistic if the IC50 value of the second compound decreased by 2-fold or more when EPZ-5676 was added as compared to the DMSO control)
O=C(c1cc(Cc2n[nH]c(=O)c3ccccc23)ccc1F)N1CCN(C(=O)C2CC2)CC1 [Olaparib]	Synergy (considered synergistic if the IC50 value of the second compound decreased by 2-fold or more when EPZ-5676 was added as compared to the DMSO control)
Nc1cccc2c1C(=O)N(C1CCC(=O)NC1=O)C2=O (stereo not shown) [Pomalidomide]	Synergy (considered synergistic if the IC50 value of the second compound decreased by 2-fold or more when EPZ-5676 was added as compared to the DMSO control)
O=C(c1ccc(OCCN2CCCCC2)cc1)c1c(-c2ccc(O)cc2)sc2cc(O)ccc12 [Raloxifene Hydrochloride]	Synergy (considered synergistic if the IC50 value of the second compound decreased by 2-fold or more when EPZ-5676 was added as compared to the DMSO control)
Cc1cccc(-c2[nH]c(C(C)(C)C)nc2-c2ccc3c(c2)OCO3)n1 [SB-505124]	Synergy (considered synergistic if the IC50 value of the second compound decreased by 2-fold or more when EPZ-5676 was added as compared to the DMSO control)
O=C1c2ccccc2-c2nc3nonc3nc21 [SMER 3]	Synergy (considered synergistic if the IC50 value of the second compound decreased by 2-fold or more when EPZ-5676 was added as compared to the DMSO control)
O=C(Nc1ccccc1-c1cn2c(CN3CCNCC3)csc2n1)c1cnc2ccccc2n1 [SRT-1720]	Synergy (considered synergistic if the IC50 value of the second compound decreased by 2-fold or more when EPZ-5676 was added as compared to the DMSO control)
Cc1coc2c1C(=O)C(=O)c1c-2ccc2c1CCCC2(C)C [TANSHINONE IIA]	Synergy (considered synergistic if the IC50 value of the second compound decreased by 2-fold or more when EPZ-5676 was added as compared to the DMSO control)
CO[C@H]1C[C@@H]2CC[C@@H](C)[C@@](O)(O2)C(=O)C(=O)N2CCCC[C@H]2C(=O)O[C@H]([C@H](C)C[C@@H]2CC[C@@H](OC(=O)C(C)(CO)CO)[C@H](OC)C2)CC(=O)[C@H](C)/C=C(\C)[C@@H](O)[C@@H](OC)C(=O)[C@H](C)C[C@H](C)/C=C/C=C/C=C/1C [Temsirolimus]	Synergy (considered synergistic if the IC50 value of the second compound decreased by 2-fold or more when EPZ-5676 was added as compared to the DMSO control)
Cn1cncc1[C@@](N)(c1ccc(Cl)cc1)c1ccc2c(c1)c(-c1cccc(Cl)c1)cc(=O)n2C [Tipifarnib]	Synergy (considered synergistic if the IC50 value of the second compound decreased by 2-fold or more when EPZ-5676 was added as compared to the DMSO control)
CC[C@@]1(O)C(=O)OCc2c1cc1n(c2=O)Cc2cc3c(CN(C)C)c(O)ccc3nc2-1 [Topotecan Hydrochloride]	Synergy (considered synergistic if the IC50 value of the second compound decreased by 2-fold or more when EPZ-5676 was added as compared to the DMSO control)
COc1ccc(Cl)c(Nc2nc3ccccc3nc2NS(=O)(=O)c2cccc(NC(=O)C(C)(C)N)c2)c1 [XL147]	Synergy (considered synergistic if the IC50 value of the second compound decreased by 2-fold or more when EPZ-5676 was added as compared to the DMSO control)
